Active and inactive are the calls of the source. The calls are words filed in the database; no cut-off is given here.
Molecular target: Annexin A2/S100-A10 (Homo sapiens) (UniProt P07355+P60903)
Assay: Inhibition of Annexin A2/Protein S100-A10 protein interaction in human MDA-MB-231 cells by Western blotting based immunoprecipitation assay
Format: cell-based

Annexin A2/S100-A10 (Homo sapiens), sequence (P07355 2-339 limits assumed): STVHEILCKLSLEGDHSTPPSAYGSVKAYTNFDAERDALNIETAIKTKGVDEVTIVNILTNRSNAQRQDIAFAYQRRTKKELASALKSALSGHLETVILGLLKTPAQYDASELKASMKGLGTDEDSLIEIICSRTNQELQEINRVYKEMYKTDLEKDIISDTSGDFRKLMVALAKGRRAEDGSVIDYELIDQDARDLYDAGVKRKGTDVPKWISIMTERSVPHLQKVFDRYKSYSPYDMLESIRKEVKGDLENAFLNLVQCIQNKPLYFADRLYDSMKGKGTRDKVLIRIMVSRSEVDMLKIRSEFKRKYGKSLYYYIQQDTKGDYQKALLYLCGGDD
Annexin A2/S100-A10 (Homo sapiens), sequence (P60903 whole entry partner): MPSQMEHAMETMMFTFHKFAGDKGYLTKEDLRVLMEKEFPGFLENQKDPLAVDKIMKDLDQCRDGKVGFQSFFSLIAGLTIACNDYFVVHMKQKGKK

| Molecule | inhibition |
| --- | --- |
| Cc1cc(C)nc(SCc2nnc(SCC(=O)Nc3ccc(C(C)C)cc3)n2Cc2ccco2)n1 | Active |
| Ac-MSTVHEILCKLSLE-OH | Active |

Source: ChEMBL document CHEMBL3352440, “Design, synthesis and SAR exploration of tri-substituted 1,2,4-triazoles as inhibitors of the annexin A2-S100A10 protein interaction” (Bioorg Med Chem, 2014)
